Experiment: xn = mol fraction of the nth substance listed
Conditions: 100 kPa, Liquid; for speed of sound: Frequency=3 MHz, Single path-length method; for mass density: Vibrating tube method

CCCCOCCOCCO [3,6-dioxa-1-decanol] + CCCCCCCCCCO
Conditions | mass density, 293.15 K [kg/m3] | mass density, 298.15 K [kg/m3] | mass density, 303.15 K [kg/m3] | mass density, 308.15 K [kg/m3] | mass density, 313.15 K [kg/m3] | speed of sound, 293.15 K [m/s] | speed of sound, 298.15 K [m/s] | speed of sound, 303.15 K [m/s] | speed of sound, 308.15 K [m/s] | speed of sound, 313.15 K [m/s]
x1 = 0.0523 | 835.331 | 831.923 | 828.507 | 825.069 | 821.625 | 1393.8 | 1376.5 | 1359.8 | 1343.3 | 1326.4
x1 = 0.102 | 840.692 | 837.244 | 833.786 | 830.318 | 826.838 | 1391.2 | 1374.1 | 1357.4 | 1340.8 | 1324
x1 = 0.1579 | 846.823 | 843.333 | 839.841 | 836.332 | 832.81 | 1388.7 | 1371.5 | 1354.9 | 1338.3 | 1321.7
x1 = 0.207 | 852.21 | 848.697 | 845.172 | 841.631 | 838.082 | 1386.6 | 1369.3 | 1352.7 | 1336 | 1319.7
x1 = 0.2513 | 857.155 | 853.609 | 850.057 | 846.484 | 842.906 | 1385 | 1367.4 | 1350.8 | 1334.1 | 1318
x1 = 0.3099 | 863.89 | 860.297 | 856.695 | 853.085 | 849.466 | 1382.7 | 1365.1 | 1348.6 | 1331.8 | 1315.9
x1 = 0.4046 | 875.017 | 871.358 | 867.688 | 864.011 | 860.317 | 1379.6 | 1362.3 | 1345.7 | 1328.8 | 1312.8
x1 = 0.5087 | 887.59 | 883.854 | 880.111 | 876.354 | 872.591 | 1376.9 | 1359.7 | 1343.1 | 1326 | 1310.2
x1 = 0.6073 | 899.873 | 896.063 | 892.242 | 888.409 | 884.574 | 1374.5 | 1358.4 | 1341.8 | 1324.7 | 1308.1
x1 = 0.7051 | 912.356 | 908.464 | 904.568 | 900.658 | 896.746 | 1373.9 | 1357.8 | 1341.3 | 1323.9 | 1307.1
x1 = 0.7952 | 924.132 | 920.17 | 916.202 | 912.22 | 908.239 | 1373.4 | 1357.9 | 1341.4 | 1323.9 | 1306.6
x1 = 0.8515 | 931.68 | 927.667 | 923.651 | 919.614 | 915.585 | 1373.4 | 1358.6 | 1342.2 | 1324.6 | 1306.5
x1 = 0.9006 | 938.376 | 934.318 | 930.252 | 926.171 | 922.107 | 1374.5 | 1359.6 | 1343.1 | 1325.4 | 1307.4
x1 = 0.9379 | 943.482 | 939.393 | 935.294 | 931.189 | 927.082 | 1374.9 | 1360.6 | 1344.1 | 1326.3 | 1307.7
x1 = 1 | 952.288 | 948.1 | 943.909 | 939.704 | 935.503 | 1378.2 | 1361.3 | 1344.5 | 1326.4 | 1307.7

— the NIST ThermoML archive (doi:10.1016/j.jct.2018.06.015)
